Experiment [1] relates to MoeE5 (Streptomyces viridosporus). As to the kind of experiment: anion-exchange HPLC. Type of experiment: biochemical. The settings on record: 1 mM UDP-GlcUA, 1 uM enzyme, 20 mM Tris-HCl pH 7.5, 37 °C, 2 h.
The subject of experiment [2] is MoeGT1 (Streptomyces viridosporus). As to the kind of experiment: LC/MS conversion time course. The experiment is classed as biochemical. The settings on record: donor 1 mM, 40 uM compound 7, 800 nM enzyme, 5 mM MgCl2, pH 7.5, 37 °C.

Regarding `O=C(O)[C@H]1O[C@H](OP(=O)(O)OP(=O)(O)OC[C@H]2O[C@@H](n3ccc(=O)[nH]c3=O)[C@H](O)[C@@H]2O)[C@H](O)[C@@H](O)[C@H]1O` [UDP-GalUA], in experiment [1], the “anion-exchange HPLC” value is listed as “we conclude that MoeE5 epimerizes UDP-GlcUA to UDP-GalUA”. Moreover, the “LC/MS conversion time course” value in experiment [2] was “showed a clear preference for UDP-GalUA over UDP-GlcUA”.

For the origin of these results see paper PMC2747051 (Biochemistry, 2009).
